Tests used:
Assay type in all cases: in vivo
Abuthilon theophrasti [1] = test: Pre-emergence herbicidal action against harmful plants; conditions: 504 h, application rate 320 g/ha, assessed visually after 3 weeks vs untreated controls, read-out: herbicidal activity in percent (%)
Description: (§1) 1. Pre-Emergence Herbicidal Action Against Harmful Plants Seeds of monocotyledonous and dicotyledonous weed plants and crop plants are placed in wood-fiber pots in sandy loam and covered with soil. The compounds according to the invention, formulated in the form of wettable powders (WP) or as emulsion concentrates (EC), are then applied as aqueous suspension or emulsion at a water application rate of 600 to 800 l/ha (converted) with the addition of 0.2% of wetting agent to the surface of the covering soil. After the treatment, the pots are placed in a greenhouse and kept under good growth conditions for the test plants. The damage to the test plants is assessed visually after a test period of 3 weeks by comparison with untreated controls (herbicidal activity in percent (%): 100% activity=the plants have died, 0% activity=like control plants). Here, the compounds Nos. 1-002, 1-004, 1-007, 1-008, 1-043, 1-044, 1-046, 1-047, 1-060, 1-079, 1-080, 1-082, 1-083, 1-085, 1-095, 1-096, 1-098, 1-099, 1-059, 2-015, 3-015, 3-018, 3-020, 4-001, 4-118, 5-004, 5-017, 5-043, 5-056, 5-082, 5-095, 6-017, 7-017, 8-017 and 8-014, for example, each show, at an application rate of 320 g/ha, an activity of at least 80% against Abuthilon theophrasti and Amaranthus retroflexus. The compounds Nos. 1-001, 1-005, 1-014, 1-015, 1-017, 1-018, 1-020, 1-033, 1-040, 1-041, 1-053, 1-054, 1-056, 1-057, 1-092, 1-093, 3-014, 3-015, 8-014, 8-017 and 8-015 each show, at an application rate of 320 g/ha, an activity of at least 80% against Setaria viridis and Stellaria media. The compounds Nos. 3-017, 4-092 and 6-004 show, at an application rate of 320 g/ha, an activity of at least 80% against Amaranthus retroflexus and Veronica persica.

Amaranthus retroflexus [2] = test: as above; conditions: 504 h, application rate 320 g/ha, assessed visually after 3 weeks vs untreated controls, read-out: herbicidal activity in percent (%)
Description: as §1

Abuthilon theophrasti [3] = test: Post-emergence herbicidal action against harmful plants; conditions: 504 h, application rate 80 g/ha, assessed visually after about 3 weeks vs untreated controls, read-out: herbicidal action in percent (%)
Description: (§2) 2. Post-Emergence Herbicidal Action Against Harmful Plants Seeds of monocotyledonous and dicotyledonous weed and crop plants are placed in sandy loam in wood-fiber pots, covered with soil and cultivated in a greenhouse under good growth conditions. 2 to 3 weeks after sowing, the test plants are treated at the one-leaf stage. The inventive compounds formulated in the form of wettable powders (WP) or as emulsion concentrates (EC) are then sprayed onto the green parts of the plants as an aqueous suspension or emulsion at a water application rate of 600 to 800 l/ha (converted) with addition of 0.2% wetting agent. After the test plants have been left to stand in the greenhouse under optimal growth conditions for about 3 weeks, the action of the formulations is assessed visually in comparison to untreated controls (herbicidal action in percent (%): 100% activity=the plants have died, 0% activity=like control plants). Here, the compounds Nos. 1-001, 1-002, 1-004, 1-005, 1-007, 1-008, 1-014, 1-015, 1-017, 1-018, 1-020, 1-033, 1-040, 1-041, 1-043, 1-044, 1-046, 1-047, 1-053, 1-054, 1-056, 1-057, 1-059, 1-060, 1-079, 1-080, 1-082, 1-083, 1-086, 1-092, 1-093, 1-095, 1-096, 1-098, 1-099, 2-015, 3-014, 3-015, 3-017, 3-018, 3-020, 5-082, 5-095, 6-017, 7-017 and 8-014 each show, at an application rate of 80 g/ha, an activity of at least 80% against Abuthilon theophrasti, Amaranthus retroflexus and Stellaria media. The compounds Nos. 4-092, 4-093, 5-004, 5-017, 5-043 and 5-056 each show, at an application rate of 80 g/ha, an activity of at least 80% against Echinocloa crus galli, Pharbitis purpureum and Stellaria media.

Amaranthus retroflexus [4] = test: as above; conditions: 504 h, application rate 80 g/ha, assessed visually after about 3 weeks vs untreated controls, read-out: herbicidal action in percent (%)
Description: as §2

Stellaria media [5] = test: as above; conditions: 504 h, application rate 80 g/ha, assessed visually after about 3 weeks vs untreated controls, read-out: herbicidal action in percent (%)
Description: as §2

Setaria viridis = test: Pre-emergence herbicidal action against harmful plants; conditions: 504 h, application rate 320 g/ha, assessed visually after 3 weeks vs untreated controls, read-out: herbicidal activity in percent (%)
Description: as §1

Stellaria media [6] = test: as above; conditions: 504 h, application rate 320 g/ha, assessed visually after 3 weeks vs untreated controls, read-out: herbicidal activity in percent (%)
Description: as §1

CCO/N=C/c1c(S(C)(=O)=O)ccc(C(=O)Nc2ncnn2C)c1Cl [2-015]
≥ 80%: pest or weed control at 320 g/ha (Abuthilon theophrasti [1]) | pest or weed control at 320 g/ha (Amaranthus retroflexus [2]) | pest or weed control at 80 g/ha (Abuthilon theophrasti [3]) | pest or weed control at 80 g/ha (Amaranthus retroflexus [4]) | pest or weed control at 80 g/ha (Stellaria media [5])

CO/N=C/c1c(Cl)ccc(C(=O)Nc2nnc(C)o2)c1Cl [4-001]
≥ 80%: pest or weed control at 320 g/ha (Abuthilon theophrasti [1]) | pest or weed control at 320 g/ha (Amaranthus retroflexus [2])

CC(C)=NOCc1c(Cl)ccc(C(=O)Nc2nnnn2C)c1Cl [5-004]
≥ 80%: pest or weed control at 320 g/ha (Abuthilon theophrasti [1]) | pest or weed control at 320 g/ha (Amaranthus retroflexus [2]) | pest or weed control at 80 g/ha (Stellaria media [5])

CC(C)=NOCc1c(S(C)(=O)=O)ccc(C(=O)Nc2nnnn2C)c1Cl [5-017]
≥ 80%: pest or weed control at 320 g/ha (Abuthilon theophrasti [1]) | pest or weed control at 320 g/ha (Amaranthus retroflexus [2]) | pest or weed control at 80 g/ha (Stellaria media [5])

CCn1nnnc1NC(=O)c1ccc(Cl)c(CON=C(C)C)c1Cl [5-043]
≥ 80%: pest or weed control at 320 g/ha (Abuthilon theophrasti [1]) | pest or weed control at 320 g/ha (Amaranthus retroflexus [2]) | pest or weed control at 80 g/ha (Stellaria media [5])

CCn1nnnc1NC(=O)c1ccc(S(C)(=O)=O)c(CON=C(C)C)c1Cl [5-056]
≥ 80%: pest or weed control at 320 g/ha (Abuthilon theophrasti [1]) | pest or weed control at 320 g/ha (Amaranthus retroflexus [2]) | pest or weed control at 80 g/ha (Stellaria media [5])

CCCn1nnnc1NC(=O)c1ccc(Cl)c(CON=C(C)C)c1Cl [5-082]
≥ 80%: pest or weed control at 320 g/ha (Abuthilon theophrasti [1]) | pest or weed control at 320 g/ha (Amaranthus retroflexus [2]) | pest or weed control at 80 g/ha (Abuthilon theophrasti [3]) | pest or weed control at 80 g/ha (Amaranthus retroflexus [4]) | pest or weed control at 80 g/ha (Stellaria media [5])

CCCn1nnnc1NC(=O)c1ccc(S(C)(=O)=O)c(CON=C(C)C)c1Cl [5-095]
≥ 80%: pest or weed control at 320 g/ha (Abuthilon theophrasti [1]) | pest or weed control at 320 g/ha (Amaranthus retroflexus [2]) | pest or weed control at 80 g/ha (Abuthilon theophrasti [3]) | pest or weed control at 80 g/ha (Amaranthus retroflexus [4]) | pest or weed control at 80 g/ha (Stellaria media [5])

CC(C)=NOCc1c(Cl)ccc(C(=O)Nc2ncnn2C)c1Cl [6-004]
≥ 80%: pest or weed control at 320 g/ha (Amaranthus retroflexus [2])

CC(C)=NOCc1c(S(C)(=O)=O)ccc(C(=O)Nc2ncnn2C)c1Cl [6-017, 2-chloro-4-(methylsulfonyl)-N-(1-methyl-1H-1,2,4-triazol-5-yl)-3-{[(propan-2-ylideneamino)oxy]methyl}benzamide]
≥ 80%: pest or weed control at 320 g/ha (Abuthilon theophrasti [1]) | pest or weed control at 320 g/ha (Amaranthus retroflexus [2]) | pest or weed control at 80 g/ha (Abuthilon theophrasti [3]) | pest or weed control at 80 g/ha (Amaranthus retroflexus [4]) | pest or weed control at 80 g/ha (Stellaria media [5])

CC(C)=NOCc1c(S(C)(=O)=O)ccc(C(=O)Nc2nonc2C)c1Cl [7-017]
≥ 80%: pest or weed control at 320 g/ha (Abuthilon theophrasti [1]) | pest or weed control at 320 g/ha (Amaranthus retroflexus [2]) | pest or weed control at 80 g/ha (Abuthilon theophrasti [3]) | pest or weed control at 80 g/ha (Amaranthus retroflexus [4]) | pest or weed control at 80 g/ha (Stellaria media [5])

C=NOCc1c(S(C)(=O)=O)ccc(C(=O)Nc2nnc(C)o2)c1Cl [8-014]
≥ 80%: pest or weed control at 320 g/ha (Abuthilon theophrasti [1]) | pest or weed control at 320 g/ha (Amaranthus retroflexus [2]) | pest or weed control at 320 g/ha (Setaria viridis) | pest or weed control at 320 g/ha (Stellaria media [6]) | pest or weed control at 80 g/ha (Abuthilon theophrasti [3]) | pest or weed control at 80 g/ha (Amaranthus retroflexus [4]) | pest or weed control at 80 g/ha (Stellaria media [5])

CC=NOCc1c(S(C)(=O)=O)ccc(C(=O)Nc2nnc(C)o2)c1Cl [8-015]
≥ 80%: pest or weed control at 320 g/ha (Setaria viridis) | pest or weed control at 320 g/ha (Stellaria media [6])

CC(C)=NOCc1c(S(C)(=O)=O)ccc(C(=O)Nc2nnc(C)o2)c1Cl [8-017]
≥ 80%: pest or weed control at 320 g/ha (Abuthilon theophrasti [1]) | pest or weed control at 320 g/ha (Amaranthus retroflexus [2]) | pest or weed control at 320 g/ha (Setaria viridis) | pest or weed control at 320 g/ha (Stellaria media [6])
